The results in this text go back to article PMC4456360, “A Recombinant Fungal Lectin for Labeling Truncated Glycans on Human Cancer Cells” (PLoS ONE, 2015).

One assay deals with HBEC-3KT cell line. The assay is classed as cell-based, human.
For a further assay, the system named is M119. Set-up: key to the marks not given beside the values. Conditions: M119, Melanoma.
In assay [1] the test system is glandular compartment of the stomach and small intestine. Nature of the assay: Labeling of healthy tissues by biotinylated rPVL. Conditions: 100 mM GlcNAc.
Method: Ethanol-fixed human trachea, esophagus, duodenal junction, jejunum, colon, pancreas, liver, ovary, uterus and vagina samples were obtained from organ donors. 18 tissue samples from 10 different individuals were used to prepare a tissue microarray (TMA) of healthy tissues.
The tissue sections were deparaffinized, then endogenous peroxidases were blocked by incubating the sections with PBS containing 3% hydrogen peroxide (v/v), for 5 mn. The sections were then blocked with BSA 5% (w/v) for 30 min at room temperature, followed by incubation with 0,7–1 μg ml^-1 biotinylated rPVL 1h at room temperature (Ethanol-fixed sections) or 2 μg ml^-1 of biotinylated rPVL in PBS at 4°C for 18h (for formalin-fixed sections). After washing the sections twice with PBS, an indirect biotin-streptavidin system and DAB (Ventana Medical Systems) or AEC (Vector laboratories) detection kits were used according to the manufacturer’s instructions. The developed slides were washed twice with PBS and counterstained with hematoxylin. After washing with water, the sections were dehydrated and mounted. Sections were observed under a BX41 microscope equipped with a DP-70 digital camera system (Olympus, Tokyo, Japan) or imaged with a NanoZoomer slide-scanner (Hamamatsu, Hamamatsu City).
Another assay concerns A549 cells. The experiment in a line: Flow cytometry, lectin binding to A549 cells (glycosylation inhibitors, glycosidases). The assay is classed as cell-based, human. To be noted: for Percentage of inhibition of MAH binding (mean fluorescence intensity): MAH 5 μg ml^-1; for Percentage of inhibition of rPVL binding (mean fluorescence intensity): biotinylated rPVL 1 μg ml^-1. (In general: A flow cytometer gives signals particle by particle.)

Consider `CC(=O)N[C@@H]1[C@@H](O)[C@H](O)[C@@H](CO)O[C@H]1O` [GlcNAc, N-acetylglucosamine], for which the “inhibition of rPVL binding by GlcNAc (in words)” value in the assay with HBEC-3KT cell line is given as “complete inhibition”. Further, in the assay on M119, the “Inhibtion by GlcNac (of PVL staining)” value is listed as “++”. Moreover, the “inhibition of rPVL staining by GlcNAc (in words)” value in assay [1] was “partial inhibition”.

For “3-fluoro-peracetyl-neuraminic acid [3F-NeuAc]”, the “Percentage of inhibition of MAH binding (mean fluorescence intensity)” value in the assay with A549 cells (A549 cells grown 4 days with 100 μM Fluoro-Neu5Ac) is 75%. In addition, the “Percentage of inhibition of rPVL binding (mean fluorescence intensity)” value in the assay with A549 cells was 59%.

`CC(=O)OC1O[C@@H](C)[C@@H](OC(C)=O)[C@@H](OC(C)=O)[C@@H]1F` (stereo partly shown) [2-FF, 2-fluoro-peracetyl fucose]: in the assay on A549 cells (A549 cells grown 4 days with 400 μM 2-Fluoro-Fucose, listed as 2F-fucose), the “Percentage of inhibition of MAH binding (mean fluorescence intensity)” value is listed as “did not affect”. In the assay with A549 cells (listed as 2F-fucose), the “Percentage of inhibition of rPVL binding (mean fluorescence intensity)” value is “did not affect”.
